From DBAASP
Converted amounts (≈) assume the structure as drawn. Values belong to the compound of their own block, whether it stands above or below them.

Columns and labels:
Assay in all cases: ≥ marks a high value that may be exact or a test limit, other limits are often not marked, values filed in µg/mL are converted to µM
[1] = test system: Escherichia coli ATCC 25922
[2] = test system: Pseudomonas aeruginosa ATCC 27853
[3] = test system: Staphylococcus aureus ATCC 29313
[4] = test system: Xanthomonas axonopodis pv. glycines ISBF 327
[5] = test system: Acinetobacter baumannii ATCC 19606
[6] = test system: Candida parapsilosis ATCC 22019
[7] = test system: Enterococcus faecalis ATCC 29212
Escherichia coli ML-35p = test system: Escherichia coli ML-35p
[8] = test system: Klebsiella pneumoniae ATCC 13883
Saccharomyces cerevisiae = test system: Saccharomyces cerevisiae
[9] = test system: Staphylococcus aureus ATCC 25923
[10] = test system: Staphylococcus aureus ATCC 43300
[11] = test system: Staphylococcus aureus ATCC BAA-44
[12] = test system: Staphylococcus aureus ST1065
[13] = test system: Streptococcus pyogenes ATCC 19615
[14] = test system: Escherichia coli DH5alpha
Staphylococcus xylosus = test system: Staphylococcus xylosus
[15] = test system: Bacillus anthracis Sterne 34F2
[16] = test system: Bacillus subtilis ATCC 9372
[17] = test system: Burkholderia thailandensis
Micrococcus luteus = test system: Micrococcus luteus
Neurospora crassa = test system: Neurospora crassa
[18] = test system: Bacillus cereus ATCC 11778
[19] = test system: Klebsiella aerogenes ATCC 13048
[20] = test system: Salmonella enterica subsp. enterica serovar Typhimurium ATCC 14028
[21] = test system: Staphylococcus aureus ATCC 29213
[22] = test system: Bacillus subtilis KCTC 3068
Enterococcus faecium = test system: Enterococcus faecium
[23] = test system: Escherichia coli KCTC 1682
[24] = test system: Pseudomonas aeruginosa KCTC 1637
[25] = test system: Salmonella typhimurium KCTC 1926
[26] = test system: Staphylococcus aureus KCTC 1621
Staphylococcus aureus = test system: Staphylococcus aureus
[27] = test system: Staphylococcus epidermidis KCTC 1917
Escherichia coli BL21AI = test system: Escherichia coli BL21AI
[28] = test system: Micrococcus luteus ATCC 10240

MIC [1]: 62 µM (≈ 121 µg/mL)
MIC [2]: 125 µM (≈ 244 µg/mL)
MIC [4]: ≥ 33 µM
Structure (SMILES): CC[C@H](C)[C@H](NC(=O)[C@@H](NC(=O)[C@H](CCCCN)NC(=O)CNC(=O)[C@H](C)NC(=O)[C@H](CC(C)C)NC(=O)[C@H](CC(N)=O)NC(=O)[C@H](CCCCN)NC(=O)[C@H](CC(C)C)NC(=O)[C@@H](NC(=O)[C@H](CC(=O)O)NC(=O)[C@H](Cc1ccccc1)NC(=O)[C@H](Cc1ccccc1)NC(=O)[C@@H](N)Cc1ccccc1)[C@@H](C)O)C(C)C)C(=O)NCC(=O)N[C@@H](C)C(=O)N[C@@H](CC(C)C)C(=O)N[C@H](C(N)=O)[C@@H](C)O [FFFDTLKNLAGKVIGALT]
MIC [3]: ≥ 62 µM

MIC [5]: 6.25 µM (≈ 12.7 µg/mL)
MIC [6]: ≥ 50 µM
MIC [7]: 25 µM (≈ 50.9 µg/mL)
MIC [1]: 25 µM (≈ 50.9 µg/mL)
MIC (Escherichia coli ML-35p): 30 µM (≈ 61.1 µg/mL)
MIC [8]: 25 µM (≈ 50.9 µg/mL)
MIC [2]: 200 µM (≈ 407 µg/mL)
MIC (Saccharomyces cerevisiae): 6.25 µM (≈ 12.7 µg/mL)
MIC [9]: 6.25 µM (≈ 12.7 µg/mL)
MIC [10]: 6.25 µM (≈ 12.7 µg/mL)
MIC [11]: 6.25 µM (≈ 12.7 µg/mL)
MIC [12]: 6.25 µM (≈ 12.7 µg/mL)
MIC [13]: 1.56 µM (≈ 3.18 µg/mL)
Structure (SMILES): CC[C@H](C)[C@H](NC(=O)[C@H](Cc1cnc[nH]1)NC(=O)[C@@H]1CCCN1C(=O)[C@@H](NC(=O)[C@H](CC(C)C)NC(=O)[C@H](CO)NC(=O)[C@H](CC(C)C)NC(=O)[C@@H](N)Cc1ccccc1)[C@@H](C)CC)C(=O)N[C@H](C(=O)N[C@@H](CO)C(=O)NCC(=O)N[C@H](C(=O)N[C@@H](C)C(=O)N[C@@H](CO)C(=O)N[C@@H](CC(C)C)C(=O)N[C@@H](C)C(=O)N[C@@H](CCCCN)C(=O)N[C@@H](Cc1cnc[nH]1)C(=O)N[C@@H](Cc1ccccc1)C(N)=O)C(C)C)C(C)C [FLSLIPHIVSGVASLAKHF]

MIC [14]: ≥ 64 µM
MIC (Staphylococcus xylosus): ≥ 64 µM
Structure (SMILES): CC[C@H](C)[C@H](NC(=O)CNC(=O)[C@H](CO)NC(=O)CN)C(=O)N[C@@H](CC(C)C)C(=O)N[C@H](C(=O)N[C@@H](CC(C)C)C(=O)N[C@H](C(=O)N[C@@H](CCCCN)C(=O)N[C@@H](CCCN=C(N)N)C(=O)N[C@@H](CCCCN)C(=O)O)[C@@H](C)CC)[C@@H](C)CC [GSGILILIKRK]

Structure (SMILES): CC[C@H](C)[C@H](NC(=O)[C@@H]1CCCN1C(=O)CNC(=O)[C@@H]1CCCN1C(=O)[C@H](CCCN=C(N)N)NC(=O)[C@@H]1CCCN1C(=O)[C@H](CCC(N)=O)NC(=O)[C@H](CC(N)=O)NC(=O)[C@@H]1CCCN1C(=O)[C@H](CC(N)=O)NC(=O)[C@H](Cc1ccccc1)NC(=O)[C@@H]1CCCN1C(=O)[C@H](CO)NC(=O)[C@@H]1CCCN1C(=O)[C@H](CCCN=C(N)N)NC(=O)[C@@H](NC(=O)[C@H](CC(=O)O)NC(=O)[C@H](Cc1ccccc1)NC(=O)[C@@H](NC(=O)[C@@H]1CCCN1C(=O)CNC(=O)[C@H](CCC(N)=O)NC(=O)[C@H](Cc1cnc[nH]1)NC(=O)[C@H](CCCN=C(N)N)NC(=O)[C@@H](N)Cc1cnc[nH]1)[C@@H](C)CC)[C@@H](C)O)C(=O)N[C@@H](Cc1ccc(O)cc1)C(=O)O [HRHQGPIFDTRPSPFNPNQPRPGPIY]
MIC [15]: ≥ 100 µM
MIC [16]: ≥ 100 µM
MIC [17]: ≥ 50 µM
MIC (Micrococcus luteus): 0.707 µM (≈ 2.14 µg/mL)
MIC (Neurospora crassa): 0.707 µM (≈ 2.14 µg/mL)

MIC [18]: ≥ 71.2 µM
MIC [1]: > 71.2 µM
MIC [19]: ≥ 71.2 µM
MIC [20]: > 71.2 µM
MIC [21]: > 71.2 µM
Structure (SMILES): CC[C@H](C)[C@H](N)C(=O)N[C@@H](CC(C)C)C(=O)NCC(=O)N[C@@H](C)C(=O)N[C@H](C(=O)N[C@@H](Cc1c[nH]c2ccccc12)C(=O)N[C@@H](CC(N)=O)C(=O)NCC(=O)N[C@H](C(=O)N[C@@H](CCCCN)C(=O)N[C@@H](CO)C(=O)N[C@@H](CC(C)C)C(=O)N[C@@H](Cc1ccccc1)C(N)=O)C(C)C)C(C)C [ILGAVWNGVKSLF]

MIC [18]: ≥ 66.5 µM
MIC [1]: > 66.5 µM
MIC [19]: ≥ 66.5 µM
MIC [20]: > 66.5 µM
MIC [21]: > 66.5 µM
Structure (SMILES): CC[C@H](C)[C@H](N)C(=O)N[C@@H](CC(C)C)C(=O)NCC(=O)N[C@@H](CCCCN)C(=O)N[C@H](C(=O)N[C@@H](Cc1c[nH]c2ccccc12)C(=O)N[C@@H](CCC(=O)O)C(=O)NCC(=O)N[C@H](C(=O)N[C@@H](CCC(=O)O)C(=O)N[C@@H](CO)C(=O)N[C@@H](CC(C)C)C(=O)N[C@@H](Cc1ccccc1)C(N)=O)[C@@H](C)CC)[C@@H](C)CC [ILGKIWEGIESLF]

MIC [22]: 1.27 µM (≈ 2 µg/mL)
MIC (Enterococcus faecium): 5.07 µM (≈ 8 µg/mL)
MIC [23]: 5.07 µM (≈ 8 µg/mL)
MIC [24]: 5.07 µM (≈ 8 µg/mL)
MIC [25]: 5.07 µM (≈ 8 µg/mL)
MIC [26]: 2.54 µM (≈ 4 µg/mL)
MIC (Staphylococcus aureus): 3.58 µM (≈ 5.66 µg/mL)
MIC [27]: 0.634 µM (≈ 1 µg/mL)
Structure (SMILES): NCCCC[C@H](NC(=O)[C@H](CCCCN)NC(=O)[C@H](Cc1ccccc1)NC(=O)[C@@H]1CCCN1C(=O)[C@H](Cc1c[nH]c2ccccc12)NC(=O)[C@H](Cc1c[nH]c2ccccc12)NC(=O)[C@H](Cc1c[nH]c2ccccc12)NC(=O)[C@@H]1CCCN1C(=O)[C@H](Cc1ccccc1)NC(=O)[C@H](CCCCN)NC(=O)[C@@H](N)CCCCN)C(=O)O [KKFPWWWPFKK]

MIC [14]: ≥ 64 µM
MIC (Staphylococcus xylosus): ≥ 64 µM
Structure (SMILES): NCCCC[C@H](NC(=O)[C@H](CCCN=C(N)N)NC(=O)[C@H](CCCCN)NC(=O)[C@H](CO)NC(=O)CNC(=O)[C@H](CO)NC(=O)CNC(=O)[C@H](CO)NC(=O)[C@H](CCCCN)NC(=O)[C@H](CCCN=C(N)N)NC(=O)[C@@H](N)CCCCN)C(=O)O [KRKSGSGSKRK]

MIC (Escherichia coli BL21AI): 13.9 µM (≈ 32 µg/mL)
MIC [28]: 6.94 µM (≈ 16 µg/mL)
Structure (SMILES): CC[C@H](C)[C@H](NC(=O)[C@H](C)NC(=O)[C@H](CCCN=C(N)N)NC(=O)[C@@H]1CCCN1C(=O)[C@@H]1CCCN1C(=O)[C@H](CCCN=C(N)N)NC(=O)[C@@H]1CCCN1C(=O)[C@H](CCCN=C(N)N)NC(=O)[C@@H]1CCCN1C(=O)[C@H](CC(C)C)NC(=O)[C@H](Cc1ccc(O)cc1)NC(=O)[C@@H]1CCCN1C(=O)[C@@H]1CCCN1C(=O)[C@H](CCCCN)NC(=O)[C@H](CC(=O)O)NC(=O)[C@@H](N)C(C)C)C(=O)N[C@@H](Cc1ccc(O)cc1)C(=O)N[C@@H](CC(N)=O)C(=O)N[C@@H](CCCN=C(N)N)C(N)=O [VDKPPYLPRPRPPRAIYNR]
